Experiments:
KM12 cells = KM12 cells proliferation inhibition (MTS), mechanism-based assay for TRK; assay type: cell-based
From the text: (§1) MTS testing kit was purchased from Promega (Madison, Wis., USA). The RPMI-1640, Fetal bovine serum and Penicillin-Streptomycin were purchased from Gibco (San Francisco, Calif., USA). Dimethyl sulfoxide (DMSO) and Puromycin were purchased from Sigma (St. Louis., Mo., USA). Mouse interleukin-3 (IL-3) was purchased from Cell signaling Technology (Boston, Mass., USA).
To investigate whether a compound is able to inhibit the activity of TRK in cells, a mechanism-based assay using KM12 cells was developed. In this assay, inhibition of TRK was detected by the inhibition of KM12 cells proliferation. KM12 cells were cultured in culture flasks to 40-80% confluence in RPMI-1640 plus 10% fetal bovine serum. Cells were collected and plated onto 96-well plates at 1000 cells/well. Plates were incubated at 37° C., with 5% CO2 for 4 h. Compounds were added to the plates, the final compound concentrations were […], 123.5, 41.2, 13.7, 4.6 and 1.5 nM. Place plates at 37° C., with 5% CO2 for KM12 cells 72 h. 20 μl MTS/100 μl medium mixture solution were added to each well and incubate the plates for exactly 2 h. Stop the reaction by adding 25 μl 10% SDS per well. Measure absorbance at 490 nm and 650 nm (reference wavelength). IC50 was calculated using GraphPad Prism 5.0.

ETV6-TRKC-G623R = molecular target: T1, ETV6-TRKC-G623R (Homo sapiens, UniProt Q16288, G623R); test: Engineered Ba/F3 cell proliferation inhibition (MTS), ETV6-TRKC-G623R; assay type: cell-based; settings: 72 h
T1 construct: fused on or other part: P41212 (Transcription factor ETV6)
From the text: as §1
To investigate whether a compound is able to inhibit the activity of TRK fusion mutation in cells, a mechanism-based assay using engineered Ba/F3 cell lines stably overexpressing oncogenic rearrangement or gene mutation of TRK (TPM3-TRKA, TPM3-TRKA-G595R, AFAP1-TRKB, ETV6-TRKC and ETV6-TRKC-G623R) were developed. In this assay, inhibition of TRK fusion mutation was detected by the cell proliferation inhibition of engineered Ba/F3 cells. Engineered Ba/F3 cells were cultured in culture flasks to 40-80% confluence in RPMI-1640 supplemented with 10% fetal bovine serum, 2 ug/mL puromycin. Cells were collected and plated onto 96-well plates at desired cell density (Ba/F3-TPM3-TRKA: 3×10^4/mL, Ba/F3-TPM3-TRKA-G595R: 1×10^5/mL, Ba/F3-AFAP1-TRKB: 1×10^5/mL, Ba/F3-ETV6-TRKC: 3×10^4/mL, Ba/F3-ETV6-TRKC-G623R: 3×10^4/mL). Plates were incubated at 37° C., with 5% CO2 for 4 h. Compounds were then added to the plates with the final compound concentrations of 10000, 3333, 1111, […], 123, 41.2, 13.7, 4.6 and 1.5 nM. Plates were incubated at 37° C., with 5% CO2 for 72 h. A mixture of 20 μl MTS/100 μl medium were added to each well and the plates were incubated at 37° C., with 5% CO2 for exactly 2 h. The reaction was stopped by adding 25 μl of 10% SDS per well. The absorbance was measured at 490 nm and 650 nm (reference wavelength). IC50 was calculated using GraphPad Prism 5.0 software.

T1 sequence (Q16288 whole entry G623R, the tested form may be a part): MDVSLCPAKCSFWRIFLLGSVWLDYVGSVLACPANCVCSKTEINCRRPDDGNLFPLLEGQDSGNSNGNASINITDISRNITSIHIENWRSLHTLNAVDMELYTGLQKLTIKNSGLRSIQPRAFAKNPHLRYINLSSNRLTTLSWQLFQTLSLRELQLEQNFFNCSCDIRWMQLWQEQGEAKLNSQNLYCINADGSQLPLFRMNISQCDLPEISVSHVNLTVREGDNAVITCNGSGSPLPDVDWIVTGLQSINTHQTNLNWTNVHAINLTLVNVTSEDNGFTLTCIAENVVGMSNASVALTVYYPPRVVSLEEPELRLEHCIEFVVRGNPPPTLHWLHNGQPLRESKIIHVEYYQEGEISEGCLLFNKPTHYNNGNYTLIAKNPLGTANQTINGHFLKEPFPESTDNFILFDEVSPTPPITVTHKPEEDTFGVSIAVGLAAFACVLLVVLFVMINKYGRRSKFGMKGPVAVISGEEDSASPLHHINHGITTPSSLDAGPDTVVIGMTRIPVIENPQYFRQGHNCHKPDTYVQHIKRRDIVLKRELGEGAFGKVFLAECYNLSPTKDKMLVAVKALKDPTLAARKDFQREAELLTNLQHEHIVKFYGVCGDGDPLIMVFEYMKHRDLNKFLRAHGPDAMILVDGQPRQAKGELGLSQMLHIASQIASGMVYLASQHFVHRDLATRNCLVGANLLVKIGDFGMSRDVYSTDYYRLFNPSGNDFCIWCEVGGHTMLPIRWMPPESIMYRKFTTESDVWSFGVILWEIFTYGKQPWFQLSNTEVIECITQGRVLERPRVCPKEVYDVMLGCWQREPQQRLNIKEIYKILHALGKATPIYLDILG

SMILES | IC50 (KM12 cells; Homo sapiens, KM12, 72 h) | also measured
C[C@@H]1CCc2ccc(F)cc2C23CC2CCN3c2ccc3ncc(n3n2)C(=O)N1 (single isomer, unassigned) [Example 33A] | 1 nM | –
C[C@@H]1CCc2ccc(F)cc2C23CC2CCN3c2ccc3ncc(n3n2)C(=O)N1 (single isomer, unassigned) [Example 33B] | – | IC50 (KM12 cells; 72 h): 1 nM
C[C@@H]1COc2ccc(F)cc2C23CC2CCN3c2ccn3ncc(c3n2)C(=O)N1 (stereo partly drawn) [Example 1, (1^3E,1^4E,6R)-3^5-fluoro-6-methyl-4-oxa-2^2,7-diaza-1(5,3)-pyrazolo[1,5-a]pyrimidina-2(2,1)-azabicyclo[3.1.0]hexana-3(1,2)-benzenacyclooctaphan-8-one] | 1 nM | –
C[C@@H]1COc2ccc(F)cc2C2(CC2)Nc2ccn3ncc(c3n2)C(=O)N1 [Example 2, (R,3′E,4′E)-5′-fluoro-7′-methylspiro[cyclopropane-1,3′-5-oxa-2,8-diaza-1(5,3)-pyrazolo[1,5-a]pyrimidina-4(1,2)-benzenacyclononaphan]-9′-one] | 1 nM | –
C[C@H]1CNC(=O)c2cnn3ccc(nc23)NC2(CC2)c2cc(F)ccc2O1 [Example 4, (S,3′E,4′E)-5′-fluoro-6′-methylspiro[cyclopropane-1,3′-5-oxa-2,8-diaza-1(5,3)-pyrazolo[1,5-a]pyrimidina-4(1,2)-benzenacyclononaphan]-9′-one] | 1 nM | –
C[C@@H]1CCc2ncc(F)cc2C23CC2CCN3c2ccn3ncc(c3n2)C(=O)N1 (stereo partly drawn) [Example 5, (1^3E,1^4E,6R)-3^5-fluoro-6-methyl-2^2,7-diaza-1(5,3)-pyrazolo[1,5-a]pyrimidina-3(3,2)-pyridina-2(2,1)-bicyclo[3.1.0]hexanacyclooctaphan-8-one] | 1 nM | –
C[C@@H]1COc2ncc(F)cc2C23CC2CCN3c2ccn3ncc(c3n2)C(=O)N1 (stereo partly drawn) [Example 6, (1^3E,1^4E,6R)-3^5-fluoro-6-methyl-4-oxa-2^2,7-diaza-1(5,3)-pyrazolo[1,5-a]-pyrimidina-3(3,2)-pyridina-2(2,1)-bicyclo[3.1.0]hexanacyclooctaphan-8-one] | 1 nM | –
C[C@H]1CNC(=O)c2cnn3ccc(nc23)N2CCC3CC32c2cc(F)cnc2O1 (stereo partly drawn) [Example 7, (1^3E,1^4E,5S)-3^5-fluoro-5-methyl-4-oxa-2^2,7-diaza-1(5,3)-pyrazolo[1,5-a]pyrimidina-3(3,2)-pyridina-2(2,1)-bicyclo[3.1.0]hexanacyclooctaphan-8-one] | 1 nM | –
C[C@H]1CNC(=O)c2cnn3ccc(nc23)NC2(CC2)c2cc(F)cnc2O1 [Example 9, (S,3′E,4′E)-5′-fluoro-6′-methylspiro[cyclopropane-1,3′-5-oxa-2,8-diaza-1(5,3)-pyrazolo[1,5-a]pyrimidina-4(3,2)-pyridinacyclononaphan]-9′-one] | 7 nM | –
C[C@@H]1CCc2ncc(F)cc2C2(CC2)Nc2ccn3ncc(c3n2)C(=O)N1 [Example 10, (R,3′E,4′E)-5′-fluoro-7′-methylspiro[cyclopropane-1,3′-2,8-diaza-1(5,3)-pyrazolo[1,5-a]pyrimidina-4(3,2)-pyridinacyclononaphan]-9′-one] | 1 nM | –
C[C@@H]1CCc2ccc(F)cc2C23CC2CCN3c2ccn3ncc(c3n2)C(=O)N1 (stereo partly drawn) [Example 12A, (1^3E,1^4E,6R)-3^5-fluoro-6-methyl-2^2,7-diaza-1(5,3)-pyrazolo[1,5-a]pyrimidina-2(2,1)-bicyclo[3.1.0]hexana-3(1,2)-benzenacyclooctaphan-8-one] | 1 nM | –
C[C@@H]1CCc2ccc(F)cc2C23CC2CCN3c2ccn3ncc(c3n2)C(=O)N1 (stereo partly drawn) [Example 12B, (1^3E,1^4E,6R)-3^5-fluoro-6-methyl-2^2,7-diaza-1(5,3)-pyrazolo[1,5-a]pyrimidina-2(2,1)-bicyclo[3.1.0]hexana-3(1,2)-benzenacyclooctaphan-8-one] | – | IC50 (KM12 cells; 72 h): 2 nM
C[C@@H]1COc2ccc(F)cc2C23CC2CCN3c2ccc3ncc(n3n2)C(=O)N1 (stereo partly drawn) [Example 13, (6R,E)-3^5-fluoro-6-methyl-4-oxa-2^2,7-diaza-1(6,3)-imidazo[1,2-b]pyridazina-2(2,1)-bicyclo[3.1.0]hexana-3(1,2)-benzenacyclooctaphan-8-one] | 1 nM | –
C[C@@H]1COc2ncc(F)cc2C23CC2CCN3c2ccc3ncc(n3n2)C(=O)N1 (stereo partly drawn) [Example 14, (6R,E)-3^5-fluoro-6-methyl-4-oxa-2^2,7-diaza-1(6,3)-imidazo[1,2-b]pyridazina-3(3,2)-pyridina-2(2,1)-bicyclo[3.1.0]hexanacyclooctaphan-8-one] | 1 nM | –
C[C@H]1CNC(=O)c2cnc3ccc(nn23)N2CCC3CC32c2cc(F)ccc2O1 (stereo partly drawn) [Example 32, (5S,E)-3^5-fluoro-5-methyl-4-oxa-2^2,7-diaza-1(6,3)-imidazo[1,2-b]pyridazina-2(2,1)-bicyclo[3.1.0]hexana-3(1,2)-benzenacyclo-octaphan-8-one] | 1 nM | –
C[C@H]1CNC(=O)c2cnc3ccc(nn23)N2CCC3CC32c2cc(F)cnc2O1 (stereo partly drawn) [Example 34, (5S,E)-3^5-fluoro-5-methyl-4-oxa-2^2,7-diaza-1(6,3)-imidazo[1,2-b]pyridazina-3(3,2)-pyridina-2(2,1)-bicyclo[3.1.0]-hexanacyclooctaphan-8-one] | 1 nM | –
C[C@@H]1CCc2ncc(F)cc2C23CC2CCN3c2ccc3ncc(n3n2)C(=O)N1 (stereo partly drawn) [Example 35, (6R,E)-3^5-fluoro-6-methyl-2^2,7-diaza-1(6,3)-imidazo[1,2-b]pyridazina-3(3,2)-pyridina-2(2,1)-bicyclo[3.1.0]hexanacyclo-octaphan-8-one] | 1 nM | –
C[C@@H]1CNC(=O)c2cnn3ccc(nc23)NC2(CC2)c2cc(F)cnc2O1 [Example 42, (R,3′E,4′E)-5′-fluoro-6′-methylspiro-[cyclopropane-1,3′-5-oxa-2,8-diaza-1(5,3)-pyrazolo[1,5-a]pyrimidina-4(3,2)-pyridina-cyclononaphan]-9′-one] | 3 nM | –
C[C@@H]1COc2ccc(F)cc2C2(CC2)N(C)c2ccc3ncc(n3n2)C(=O)N1 [Example 53, (7′R,E)-5′-fluoro-2′,7′-dimethylspiro-[cyclopropane-1,3′-5-oxa-2,8-diaza-1(6,3)-imidazo[1,2-b]pyridazina-4(1,2)-benzenacyclononaphan]-9′-one] | 30 nM | –
C[C@@H]1CCc2ccc(F)cc2C2(CC2)N(C)c2ccc3ncc(n3n2)C(=O)N1 [Example 56, (7′R,E)-5′-fluoro-2′,7′-dimethylspiro-[cyclopropane-1,3′-2,8-diaza-1(6,3)-imidazo[1,2-b]pyridazina-4(1,2)-benzenacyclononaphan]-9′-one] | 3 nM | –
O=C1NCCCOc2ncc(F)cc2[C@@]23C[C@@H]2CCN3c2ccn3ncc1c3n2 [Example 76, (1^3E,1^4E,2^1E,2^1R,2^5S)-3^5-fluoro-4-oxa-2^2,8-diaza-1(5,3)-pyrazolo[1,5-a]pyrimidina-3(3,2)-pyridina-2(2,1)-bicyclo[3.1.0]hexana-cyclononaphan-9-one] | – | IC50 (ETV6-TRKC-G623R): 1 nM
O=C1NCC2(CC2)COc2ncc(F)cc2[C@@]23C[C@@H]2CCN3c2ccn3ncc1c3n2 [Example 79, (1′R,3′E,4′E,5′S)-5′-fluorospiro-[cyclopropane-1,6′-4-oxa-2^2,8-diaza-1(5,3)-pyrazolo[1,5-a]pyrimidina-3(3,2)-pyridina-2(2,1)-bicyclo[3.1.0]hexana-cyclononaphan]-9′-one] | – | IC50 (ETV6-TRKC-G623R): 1 nM
CC1(C)CNC(=O)c2cnn3ccc(nc23)N2CC[C@H]3C[C@]32c2cc(F)cnc2OC1 [Example 80, (1^3E,1^4E,2^1R,2^5S)-3^5-fluoro-6,6-dimethyl-4-oxa-2^2,8-diaza-1(5,3)-pyrazolo[1,5-a] pyrimidina-3(3,2)-pyridina-2(2,1)-bicyclo [3.1.0]hexanacyclononaphan-9-one] | – | IC50 (ETV6-TRKC-G623R): 4 nM
O=C1NCC(F)(F)COc2ncc(F)cc2[C@@]23C[C@@H]2CCN3c2ccn3ncc1c3n2 [Example 81, (1^3E,1^4E,2^1R,2^5S)-3^5,6,6-trifluoro-4-oxa-2^2,8-diaza-1(5,3)-pyrazolo[1,5-a]pyrimidina-3(3,2)-pyridina-2(2,1)-bicyclo[3.1.0] hexanacyclononaphan-9-one] | – | IC50 (ETV6-TRKC-G623R): 1 nM

Source: patent publication US11555042B2, “Macrocyclic compounds as TRK kinases inhibitors” (FOCHON BIOSCIENCES, LTD., priority 2018, dated 2023)
